Test results reported in patent US9617602B2, “Methods and compositions for determining resistance to androgen receptor therapy” (Aragon Pharmaceuticals, Inc., priority 2012, dated 2017).

Tests used:
[1] = tested on: Class 2 resistant cell lines; assay: Transcriptional reporter assay (probasin-luciferase); assay type: cell-based, human; details: for Agonist Transcriptional Reporter Assay (% Max Activity) / Antagonist Transcriptional Reporter Assay (% Max Activity): Class 2; for Agonist Transcriptional Reporter Assay (% Max Activity): [Antagonists] = 50 μM; for Antagonist Transcriptional Reporter Assay (% Max Activity): [Antagonists] = 50 μM in presence of R1881
Experimental: With the exception of the LNCaP/AR(cs)-Luc cells that contain an integrated androgen responsive reporter, cells were transiently transfected using Lipofectin® (Life Technologies) according to the manufacturer's protocol. […] Following transfection, the cells were incubated for 4 hours.
Following 48 hour incubation the medium was removed and the cells were lysed in 40 μL of lysis buffer (25 mM Tris Phosphate, 2 mM CDTA, 10% Glycerol, 0.5% Triton X-100, 2 mM DTT).

[2] = tested on: LNCaP/AR(cs) cells; assay: Proliferation assay (CellTiter-Glo), agonist and antagonist mode; assay type: cell-based, human
[3] = tested on: LNCaP cells; assay: as above; assay type: cell-based, human
[4] = tested on: Class 2 MDV3100- and ARN-509-resistant cell lines; assay: as above; assay type: cell-based, human; details: for Antagonism of androgen dependent growth of Class 2 resistant lines: antagonist mode
[5] = tested on: LNCaP/AR-Luc cells; assay: Endogenous gene transcriptional assay (real-time PCR of androgen responsive genes); assay type: cell-based, human; details: 1 nM R1881 or 30 μM compound, vehicle=1.00
Experimental: (§1) Total RNA was isolated using the Aurum™ total RNA isolation kit (BIO-RAD, Hercules, Calif.). RNA (1 μg) was reverse transcribed using the iScript cDNA synthesis kit (BIO-RAD, Hercules, Calif.) to produce cDNA. Real-time PCR was performed using the Applied Biosystems 7900HT instrument and SYBR Green PCR Master Mix (Applied Biosystems, Foster City, Calif.). PCR reactions were performed in 6 μL according to the manufacturer's protocol and a thermocycle protocol of 95° C. for 10 minutes followed by 40 cycles of 95° C. for 15 seconds and 58° C. for 1 minute. Androgen responsive gene (PSA, SLUG, TMPRSS2, STEAP4, FKBP5, ORM1, NOV, FASN, NKX3.1, AMIGO2, BDNF, CAMK2N1, HPGD, NCAPD3, PLD1) expression was normalized to GAPDH expression and expressed relative to vehicle treatment of the parental cell line.
(§2) Gene expression was normalized to GAPDH as described above.

[6] = tested on: LNCaP/AR(cs) xenograft tumors; assay: Tumor xenograft in castrated SHO male mice; assay type: in vivo
[7] = tested on: LNCaP cells; assay: Endogenous gene transcriptional assay (real-time PCR of androgen responsive genes); assay type: cell-based, human; details: 1 nM R1881 or 30 μM compound, vehicle=1.00
Experimental: as §1, §2

[8] = tested on: Class 2 resistant cell lines; assay: as above; assay type: cell-based, human
Experimental: as §1

[9] = tested on: Class 1 resistant cell lines; assay: as above; assay type: cell-based, human
Experimental: as §1

[10] = Homo sapiens, 168 h, read-out: Antagonist Proliferation Assay (% Viability)

**Q.** For `CNC(=O)c1ccc(N2C(=S)N(c3cnc(C#N)c(C(F)(F)F)c3)C(=O)C23CCC3)cc1F` [ARN-509], which “Agonist activity in probasin-luciferase reporter assay, Class 2 resistant cells” value [1] is on record?
**A.** no agonist activity

**Q.** And the “Agonist Transcriptional Reporter Assay (% Max Activity)” value [1]?
**A.** + (‘+’ = <5)

**Q.** And the “Antagonist Transcriptional Reporter Assay (% Max Activity)” value [1]?
**A.** + (‘+’ = <5)

**Q.** And the viability at 0.0001 µM ([2]; Homo sapiens, LNCaP/AR, 168 h, read-out: Antagonist Proliferation Assay (% Viability))?
**A.** < 30%

**Q.** And the “Agonist Proliferation Assay (% Viability)” value ([2]; LNCaP/AR(cs), [Antagonists] = 10 μM, 7 days)?
**A.** + (‘+’ = <30)

**Q.** And the viability at 0.0001 µM [3, 10]?
**A.** < 30%

**Q.** What about the “Agonist Proliferation Assay (% Viability)” value ([3]; [Antagonists] = 10 μM, 7 days) of the same compound?
**A.** + (‘+’ = <30)

**Q.** And the “Agonist Proliferation Assay (% Viability)” value ([4]; Class 2, [Antagonists] = 10 μM, 7 days)?
**A.** ++ (‘++’ = >30)

**Q.** What about the viability at 0.0001 µM [4, 10] of the same compound?
**A.** > 30%

**Q.** What about the “Stimulation of proliferation in Class 2 cell lines” value ([4]; agonist mode) of the same compound?
**A.** can stimulate proliferation

**Q.** And the “Antagonism of androgen dependent growth of Class 2 resistant lines” value [4]?
**A.** only partially antagonized

**Q.** And the AMIGO2 gene expression [5]?
**A.** 1.13

**Q.** And the BDNF gene expression [5]?
**A.** 1.17

**Q.** And the CAM2KN1 gene expression [5]?
**A.** 1.13

**Q.** What about the FASN gene expression [5] of the same compound?
**A.** 1.08

**Q.** What about the FKBP5 gene expression [5] of the same compound?
**A.** 1.16

**Q.** What about the HPGD gene expression [5] of the same compound?
**A.** 1.88

**Q.** And the NKX3.1 gene expression [5]?
**A.** 1.14

**Q.** What about the NOV gene expression [5] of the same compound?
**A.** 2.55

**Q.** What about the ORM1 gene expression [5] of the same compound?
**A.** 1.27

**Q.** What about the PLD1 gene expression [5] of the same compound?
**A.** 1.45

**Q.** What about the PSA gene expression [5] of the same compound?
**A.** 0.60

**Q.** What about the SLUG gene expression [5] of the same compound?
**A.** 1.13

**Q.** What about the STEAP4 gene expression [5] of the same compound?
**A.** 0.88

**Q.** What about the TMPRSS2 gene expression [5] of the same compound?
**A.** 0.74

**Q.** And the “Effect on LNCaP/AR(cs) xenograft tumors (Example 1)” value ([6]; 30 mg/kg QD orally, castrated SHO mice, initial response)?
**A.** induced tumor regression

**Q.** And the “Anti-tumor activity in the LNCaP/AR(cs) model (Example 14)” value ([6]; 30 mg/kg/day oral gavage, castrate male mice)?
**A.** robust anti-tumor activity

**Q.** And the AMIGO2 gene expression [7]?
**A.** 1.12

**Q.** What about the BDNF gene expression [7] of the same compound?
**A.** 1.09

**Q.** And the CAM2KN1 gene expression [7]?
**A.** 1.17

**Q.** What about the FASN gene expression [7] of the same compound?
**A.** 1.34

**Q.** And the FKBP5 gene expression [7]?
**A.** 0.99

**Q.** And the HPGD gene expression [7]?
**A.** 1.48

**Q.** What about the NKX3.1 gene expression [7] of the same compound?
**A.** 0.90

**Q.** And the NOV gene expression [7]?
**A.** 1.73

**Q.** What about the ORM1 gene expression [7] of the same compound?
**A.** 0.71

**Q.** And the PLD1 gene expression [7]?
**A.** 1.09

**Q.** What about the PSA gene expression [7] of the same compound?
**A.** 0.66

**Q.** And the SLUG gene expression [7]?
**A.** 1.27

**Q.** And the STEAP4 gene expression [7]?
**A.** 0.78

**Q.** What about the TMPRSS2 gene expression [7] of the same compound?
**A.** 0.77

**Q.** How did the “Agonist activity in probasin-luciferase reporter assay, Class 2 resistant cells” value [1] turn out when `CNC(=O)c1ccc(N2C(=S)N(c3ccc(C#N)c(C(F)(F)F)c3)C(=O)C2(C)C)cc1F` [Enzalutamide, enzalutamide] was run?
**A.** weak partial agonist

**Q.** And the “Agonist Transcriptional Reporter Assay (% Max Activity)” value [1]?
**A.** ++ (‘++’ = >5)

**Q.** What about the “Antagonist Transcriptional Reporter Assay (% Max Activity)” value [1] of the same compound?
**A.** ++ (‘++’ = >5)

**Q.** What about the “Transcriptional activity on endogenous androgen-responsive genes, Class 2 resistant cell lines” value [8] of the same compound?
**A.** robust transcriptional agonist activity

**Q.** What about the “Transcriptional activity on endogenous androgen-responsive genes, Class 1 resistant cells” value [9] of the same compound?
**A.** weak transcriptional agonist

**Q.** And the “Antagonism of androgen dependent growth of Class 2 resistant lines” value [4]?
**A.** only partially antagonized

**Q.** What about the AMIGO2 gene expression [5] of the same compound?
**A.** 1.44

**Q.** What about the BDNF gene expression [5] of the same compound?
**A.** 1.08

**Q.** And the CAM2KN1 gene expression [5]?
**A.** 1.51

**Q.** And the FASN gene expression [5]?
**A.** 1.40

**Q.** And the FKBP5 gene expression [5]?
**A.** 1.46

**Q.** And the HPGD gene expression [5]?
**A.** 2.51

**Q.** And the NCAPD3 gene expression [5]?
**A.** 1.33

**Q.** What about the NKX3.1 gene expression [5] of the same compound?
**A.** 1.68

**Q.** And the ORM1 gene expression [5]?
**A.** 1.39

**Q.** And the PLD1 gene expression [5]?
**A.** 1.33

**Q.** And the PSA gene expression [5]?
**A.** 0.44

**Q.** What about the SLUG gene expression [5] of the same compound?
**A.** 2.73

**Q.** And the STEAP4 gene expression [5]?
**A.** 1.23

**Q.** And the TMPRSS2 gene expression [5]?
**A.** 1.35

**Q.** And the AMIGO2 gene expression [7]?
**A.** 1.20

**Q.** And the BDNF gene expression [7]?
**A.** 0.85

**Q.** And the CAM2KN1 gene expression [7]?
**A.** 1.39

**Q.** And the FASN gene expression [7]?
**A.** 1.24

**Q.** And the HPGD gene expression [7]?
**A.** 1.78

**Q.** And the NCAPD3 gene expression [7]?
**A.** 1.20

**Q.** And the NKX3.1 gene expression [7]?
**A.** 1.66

**Q.** And the NOV gene expression [7]?
**A.** 2.57

**Q.** And the PLD1 gene expression [7]?
**A.** 0.70

**Q.** What about the PSA gene expression [7] of the same compound?
**A.** 1.69

**Q.** What about the SLUG gene expression [7] of the same compound?
**A.** 2.35

**Q.** And the TMPRSS2 gene expression [7]?
**A.** 1.68
